Source: paper PMC9995496, “A screen for MeCP2-TBL1 interaction inhibitors using a luminescence-based assay” (Scientific Reports, 2023)
Counter-ions that a name gives are not always drawn. Square brackets hold non-standard residues; d marks the D form. Peptide text beside a SMILES is read from it. * marks the point of attachment. ξ: configuration not given here. Nva = CCC[C@H](N)C(=O)O; Cbz = O=C(OCc1ccccc1)*; ξL = CC(C)CC(N)C(=O)O; ξM = CSCCC(N)C(=O)O

These compounds were tested on PRKACA-PRKAR2A interaction (SmBiT-PRKACA / LgBiT-PRKAR2A), protein kinase A. Conditions: 0.5 h, 20 µM; inhibitor.
Design: NanoLuc complementation counter-screen in cell extract, PRKACA with PRKAR2A, loss of luminescence, detects NanoLuc interference

| Structure (SMILES) | Inh (PKA) [%] |
| --- | --- |
| CC(=O)Nc1ccc(OC[C@](C)(O)C(=O)Nc2ccc([N+](=O)[O-])c(C(F)(F)F)c2)cc1 [UM0141445:01, Andarine] | 7.113 |

Same assay, conditions: counter-screen for NanoLuc interference, 0.5 h, 20 µM, inhibitor, Inh (PKA)

| Structure (SMILES) | Inh (PKA) [%] |
| --- | --- |
| CN1CCN(c2ccc3nc(-c4c(N)c5c(F)cccc5[nH]c4=O)[nH]c3c2)CC1 [UM0141446:01, Dovitinib (TKI-258, CHIR-258)] | 5.935 |

Same assay, conditions: counter-screen for NanoLuc interference; 0.5 h, 20 µM; inhibitor

| Structure (SMILES) | Inh (PKA) [%] |
| --- | --- |
| CC(C)C[C@H](NC(=O)[C@H](CCc1ccccc1)NC(=O)CN1CCOCC1)C(=O)N[C@@H](Cc1ccccc1)C(=O)N[C@@H](CC(C)C)C(=O)[C@@]1(C)CO1 [UM0141433:01, Carfilzomib (PR-171)] | 0.3082 |
| COC[C@H](NC(=O)c1cnc(C)s1)C(=O)N[C@@H](COC)C(=O)N[C@@H](Cc1ccccc1)C(=O)[C@@]1(C)CO1 [UM0141434:01, Oprozomib (ONX-0912)] | -0.3511 |
| Cn1cnc2c(F)c(Nc3ccc(Br)cc3F)c(C(=O)NOCCO)cc21 [UM0141435:01, MEK162 (ARRY-162, ARRY-438162)] | 13.83 |
| CCN(CC)CCCC(C)Nc1nc(C)cc(Nc2ccc3nc(C)cc(N)c3c2)n1 (stereo not shown) [UM0141436:01, NSC 23766] | 2.521 |
| COc1cc([C@@H]2c3cc4c(cc3[C@@H](O[C@@H]3O[C@@H]5CO[C@@H](C)O[C@H]5[C@H](O)[C@H]3O)[C@H]3COC(=O)[C@H]23)OCO4)cc(OC)c1O [UM0141437:01, Etoposide] | 1.839 |
| CC(C)(C)c1cnc(CSc2cnc(NC(=O)C3CCNCC3)s2)o1 [UM0141438:01, SNS-032 (BMS-387032)] | 4.184 |
| Cn1c(CCCC(=O)O)nc2cc(N(CCCl)CCCl)ccc21 [UM0141439:01, Bendamustine HCl] | -0.1879 |
| C=CC(=O)Nc1ccc2ncnc(Nc3cccc(Br)c3)c2c1 [UM0141440:01, PD168393] | 22.44 |
| Cc1ccccc1-n1c(Cn2cnc3c(N)ncnc32)nc2cccc(C)c2c1=O [UM0141441:01, IC-87114] | 5.733 |
| Cc1ccc([N+](=O)[O-])cc1S(=O)(=O)N(C)/N=C/c1cnc2ccc(Br)cn12 [UM0141442:01, PIK-75] | 46.51 |
| CN1CCN(CCOc2cc(OC3CCOCC3)c3c(Nc4c(Cl)ccc5c4OCO5)ncnc3c2)CC1 [UM0141443:01, Saracatinib (AZD0530)] | 2.374 |
| COc1cc(Nc2c(C#N)cnc3cc(OCCCN4CCN(C)CC4)c(OC)cc23)c(Cl)cc1Cl [UM0141444:01, Bosutinib (SKI-606)] | 20.21 |
| O=C(NNc1nc2cc(F)ccc2n2cccc12)c1cnccn1 [UM0141448:01, SC 144] | 4.683 |
| O=[N+]([O-])c1ccc2c(c1)S(=O)(=O)C=C2 [UM0141450:01, Stattic] | 9.361 |
| Cc1cc(N2CCOCC2)cc2[nH]c(-c3c(NC[C@@H](O)c4cccc(Cl)c4)cc[nH]c3=O)nc12 [UM0141451:01, BMS-536924] | 41.39 |
| O=S(=O)(c1ccccc1)N(CC(F)(F)F)c1ccc(C(O)(C(F)(F)F)C(F)(F)F)cc1 [UM0141452:01, T0901317] | 30.09 |
| Nc1ncnc2c1c(-c1cccc(OCc3ccccc3)c1)cn2[C@H]1C[C@@H](CN2CCC2)C1 [UM0141453:01, NVP-AEW541] | 10.76 |
| Cc1[nH]c(/C=C2\C(=O)Nc3ccc(S(=O)(=O)Cc4c(Cl)cccc4Cl)cc32)c(C)c1C(=O)N1CCC[C@@H]1CN1CCCC1 [UM0141454:01, PHA-665752] | 72.78 |
| CNCc1cc(-c2ccccc2F)n(S(=O)(=O)c2cccnc2)c1 [UM0141455:01, TAK-438] | 1.837 |

| Structure (SMILES) | Inh (PKA) [%] |
| --- | --- |
| C[C@@H]1C[C@H]2[C@@H]3CCC4=CC(=O)C=C[C@]4(C)[C@@]3(F)[C@@H](O)C[C@]2(C)[C@@]1(O)C(=O)CO [UM0141456:01, Dexamethasone (DHAP)] | 0.4412 |
| COCC(=O)NC/C=C/c1ccc2ncnc(Nc3ccc(Oc4ccc(C)nc4)c(C)c3)c2c1 [UM0141457:01, CP-724714] | 30.01 |
| C[C@H]1O[C@H](O[C@H]2[C@H](O)[C@@H](O)[C@@H](O[C@H]3[C@H](O)[C@@H](O)C(O)O[C@@H]3CO)O[C@@H]2CO)[C@H](O)[C@@H](O)[C@@H]1N[C@H]1C=C(CO)[C@@H](O)[C@H](O)[C@H]1O (stereo partly shown) [UM0141458:01, Acarbose] | 2.661 |
| NCCC(O)(P(=O)(O)O)P(=O)(O)O [UM0141459:01, Pamidronate Disodium] | 0.7087 |
| CC(=O)[C@]1(O)Cc2c(O)c3c(c(O)c2[C@@H](O[C@H]2C[C@H](N)[C@H](O)[C@H](C)O2)C1)C(=O)c1ccccc1C3=O [UM0141460:01, Idarubicin HCl] | 47.84 |
| CC(C)(F)C[C@H](N[C@@H](c1ccc(-c2ccc(S(C)(=O)=O)cc2)cc1)C(F)(F)F)C(=O)NC1(C#N)CC1 [UM0141461:01, Odanacatib (MK-0822)] | 3.507 |
| Nc1nc(=O)c2c([nH]1)NCC(CNc1ccc(C(=O)N[C@@H](CCC(=O)O)C(=O)O)cc1)N2C=O (stereo partly shown) [UM0141462:01, Leucovorin Calcium] | 1.727 |
| CN[C@H]1C[C@@H](N)[C@H](O)[C@@H](O[C@@H]2O[C@H](CO)[C@H](O)[C@@H]3OC4(O[C@H]23)O[C@H]([C@@H](N)CO)[C@H](O)[C@H](O)[C@H]4O)[C@@H]1O (stereo partly shown) [UM0141464:01, Hygromycin B] | 0.3498 |
| NC[C@H]1O[C@H](O[C@H]2[C@H](O)[C@@H](O[C@H]3O[C@H](CO)[C@@H](O)[C@H](N)[C@H]3O)[C@H](N)C[C@@H]2N)[C@H](O)[C@@H](O)[C@@H]1O [UM0141465:01, Kanamycin Sulfate] | 1.064 |
| Cc1ccc(Sc2ccccc2N2CCNCC2)c(C)c1 [UM0141466:01, Vortioxetine (Lu AA21004) HBr] | 18.25 |
| CC(=O)N[C@@H](CC(C)C)C(=O)N[C@@H](CC(C)C)C(=O)N[C@H](C=O)CCCNC(=N)N [UM0141467:01, Leupeptin, Microbial] | 0.9653 |
| CC(C)C[C@H](NC(=O)[C@@H](O)[C@H](N)Cc1ccccc1)C(=O)O [UM0141468:01, Bestatin] | 1.556 |
| CNC(=O)[C@H](Cc1ccccc1)NC(=O)[C@H](CC(C)C)[C@H](CSc1cccs1)C(=O)NO [UM0141470:01, Batimastat (BB-94)] | 1.977 |
| CC(C)C[C@@H](C=O)NC(=O)[C@H](CC(C)C)NC(=O)[C@H](CC(C)C)NC(=O)OCc1ccccc1 [UM0141471:01, MG-132] (Cbz-Leu-Leu-Leu-aldehyde) | 6.639 |
| Cc1cc2c(F)c(Oc3ncnn4cc(OC[C@@H](C)O)c(C)c34)ccc2[nH]1 [UM0141474:01, Brivanib (BMS-540215)] | 42.48 |
| CSCCC(C=O)NC(=O)C(CC(C)C)NC(=O)[C@H](CC(C)C)NC(C)=O (stereo partly shown) [UM0141476:01, Calpain Inhibitor II, ALLM] (Ac-Leu-[ξL]-[ξM]-aldehyde) | 1.385 |
| CC[C@H](C)[C@H](NC(=O)[C@H]([C@@H](C)CC)N(C)C(C)=O)C(=O)N[C@H](C(=O)N[C@@H](CC(C)C)C(=O)[C@@]1(C)CO1)[C@@H](C)O [UM0141477:01, Epoxomicin] | 1.438 |
| CCC[C@@H](C=O)NC(=O)[C@H](CC(C)C)NC(=O)[C@H](CC(C)C)NC(=O)OCc1ccccc1 [UM0141478:01, MG-115] (Cbz-Leu-Leu-[Nva]-aldehyde) | 4.161 |
| Cc1cc2c(F)c(Oc3ncnn4cc(OC[C@@H](C)OC(=O)[C@H](C)N)c(C)c34)ccc2[nH]1 [UM0141479:01, Brivanib Alaninate (BMS-582664)] | 33.56 |
